ChEMBL document CHEMBL3124777, “Synthesis and biological evaluation of thiazoline derivatives as new antimicrobial and anticancer agents” (Eur J Med Chem, 2014)
Values after ≈ are worked out from the molar mass of the structure shown.

Assays:
C6 [1] = experiment: Cytotoxicity against rat C6 cells assessed as cell viability at 100 ug/ml after 24 hrs by MTT assay relative to control; type: functional; conditions: C6, 24 h, read-out: Activity
Escherichia coli = experiment: Antimicrobial activity against Escherichia coli ATCC 25922 after 18 to 24 hrs by microbroth dilution method; type: functional
Micrococcus luteus = experiment: Antimicrobial activity against Micrococcus luteus NRLL B-4375 after 18 to 24 hrs by microbroth dilution method; type: functional
Staphylococcus aureus = experiment: Antimicrobial activity against Staphylococcus aureus NRRL B-767 after 18 to 24 hrs by microbroth dilution method; type: functional
Fusarium solani = experiment: Antimicrobial activity against Fusarium solani NRRL 13414 after 48 to 72 hrs by microbroth dilution method; type: functional
C6 [2] = experiment: Cytotoxicity against rat C6 cells assessed as cell viability at 12 ug/ml after 24 hrs by MTT assay relative to control; type: functional; conditions: C6, 24 h, read-out: Activity
Fusarium culmorum = experiment: Antimicrobial activity against wild type Fusarium culmorum after 48 to 72 hrs by microbroth dilution method; type: functional
Candida albicans = experiment: Antimicrobial activity against Candida albicans ATCC 22019 after 18 to 24 hrs by microbroth dilution method; type: functional
C6 [3] = experiment: Cytotoxicity against rat C6 cells assessed as cell viability at 6 ug/ml after 24 hrs by MTT assay relative to control; type: functional; conditions: C6, 24 h, read-out: Activity
Trichoderma harzianum = experiment: Antimicrobial activity against Trichoderma harzianum NRRL 20565 after 48 to 72 hrs by microbroth dilution method; type: functional
Bacillus subtilis = experiment: Antimicrobial activity against Bacillus subtilis NRS-744 after 18 to 24 hrs by microbroth dilution method; type: functional
NIH3T3 = experiment: Cytotoxicity against mouse NIH/3T3 cells after 24 hrs by MTT assay; type: cell-based; conditions: NIH3T3, 24 h
Aspergillus parasiticus = experiment: Antimicrobial activity against Aspergillus parasiticus NRRL 465 after 48 to 72 hrs by microbroth dilution method; type: functional
C6 [4] = experiment: Cytotoxicity against rat C6 cells assessed as cell viability at 200 ug/ml after 24 hrs by MTT assay relative to control; type: functional; conditions: C6, 24 h, read-out: Activity
Fusarium verticillioides = experiment: Antimicrobial activity against Fusarium moniliforme NRRL 1866 after 48 to 72 hrs by microbroth dilution method; type: functional
Penicillium chrysogenum = experiment: Antimicrobial activity against Penicillium chrysogenum NRRL 1951 after 48 to 72 hrs by microbroth dilution method; type: functional
C6 [5] = experiment: Cytotoxicity against rat C6 cells assessed as cell viability at 25 ug/ml after 24 hrs by MTT assay relative to control; type: functional; conditions: C6, 24 h, read-out: Activity
C6 [6] = experiment: Cytotoxicity against rat C6 cells assessed as cell viability at 50 ug/ml after 24 hrs by MTT assay relative to control; type: functional; conditions: C6, 24 h, read-out: Activity
C6 [7] = experiment: Cytotoxicity against rat C6 cells after 24 hrs by MTT assay; type: functional, cell-based; conditions: C6, 24 h
Listeria monocytogenes = experiment: Antimicrobial activity against Listeria monocytogenes ATCC 7644 after 18 to 24 hrs by microbroth dilution method; type: functional
Pseudomonas aeruginosa = experiment: Antimicrobial activity against Pseudomonas aeruginosa […] after 18 to 24 hrs by microbroth dilution method; type: functional
Aspergillus ochraceus = experiment: Antimicrobial activity against Aspergillus ochraceus NRRL 3174 after 48 to 72 hrs by microbroth dilution method; type: functional

SMILES	MIC (Escherichia coli) [µg/mL]	MIC (Micrococcus luteus) [µg/mL]	MIC (Staphylococcus aureus) [µg/mL]	MIC (Fusarium solani) [µg/mL]	MIC (Fusarium culmorum) [µg/mL]	MIC (Candida albicans) [µg/mL]	MIC (Trichoderma harzianum) [µg/mL]	MIC (Bacillus subtilis) [µg/mL]	MIC (Aspergillus parasiticus) [µg/mL]	MIC (Fusarium verticillioides) [µg/mL]	MIC (Penicillium chrysogenum) [µg/mL]	MIC (Listeria monocytogenes) [µg/mL]	viability at 100 µg/mL (C6 [1]) [%]	viability at 12 µg/mL (C6 [2]) [%]	viability at 6 µg/mL (C6 [3]) [%]	IC50 (NIH3T3) [µg/mL]	viability at 200 µg/mL (C6 [4]) [%]	viability at 25 µg/mL (C6 [5]) [%]	viability at 50 µg/mL (C6 [6]) [%]	IC50 (C6 [7]) [µg/mL]	other results
O=C(CSc1nnnn1-c1ccccc1)N/N=c1/scc(-c2ccc(Cl)cc2)n1-c1ccccc1	125 (≈ 240 µM)	125 (≈ 240 µM)	250 (≈ 481 µM)	250 (≈ 481 µM)	250 (≈ 481 µM)	250 (≈ 481 µM)	125 (≈ 240 µM)	250 (≈ 481 µM)	250 (≈ 481 µM)	250 (≈ 481 µM)	250 (≈ 481 µM)	250 (≈ 481 µM)	54.3	69.3	77.4	313 (≈ 602 µM)	52.4	62.3	60	> 200	MIC (Pseudomonas aeruginosa): 125 µg/mL (≈ 240 µM); MIC (Aspergillus ochraceus): 250 µg/mL (≈ 481 µM)
Cn1cnnc1SCC(=O)N/N=c1/scc(-c2ccc(C#N)cc2)n1-c1ccccc1	250 (≈ 559 µM)	250 (≈ 559 µM)	250 (≈ 559 µM)	250 (≈ 559 µM)	250 (≈ 559 µM)	250 (≈ 559 µM)	125 (≈ 279 µM)	250 (≈ 559 µM)	250 (≈ 559 µM)	250 (≈ 559 µM)	250 (≈ 559 µM)	250 (≈ 559 µM)	55.2	62.6	70.2	153 (≈ 343 µM)	52.6	58.8	58.8	> 200	MIC (Pseudomonas aeruginosa): 250 µg/mL (≈ 559 µM); MIC (Aspergillus ochraceus): 250 µg/mL (≈ 559 µM)
Cn1cnnc1SCC(=O)N/N=c1/scc(-c2ccccc2)n1-c1ccccc1	250 (≈ 592 µM)	250 (≈ 592 µM)	250 (≈ 592 µM)	250 (≈ 592 µM)	250 (≈ 592 µM)	250 (≈ 592 µM)	125 (≈ 296 µM)	250 (≈ 592 µM)	250 (≈ 592 µM)	250 (≈ 592 µM)	250 (≈ 592 µM)	250 (≈ 592 µM)	38.6	79.6	90	217 (≈ 513 µM)	35.5	77.3	62.4	68.3 (≈ 162 µM)	MIC (Pseudomonas aeruginosa): 250 µg/mL (≈ 592 µM); MIC (Aspergillus ochraceus): 250 µg/mL (≈ 592 µM)

The next lines start with results.

MIC (Escherichia coli) [µg/mL]	MIC (Micrococcus luteus) [µg/mL]	MIC (Staphylococcus aureus) [µg/mL]	MIC (Fusarium solani) [µg/mL]	MIC (Fusarium culmorum) [µg/mL]	MIC (Candida albicans) [µg/mL]	MIC (Trichoderma harzianum) [µg/mL]	MIC (Bacillus subtilis) [µg/mL]	MIC (Aspergillus parasiticus) [µg/mL]	MIC (Fusarium verticillioides) [µg/mL]	MIC (Penicillium chrysogenum) [µg/mL]	MIC (Listeria monocytogenes) [µg/mL]	SMILES	viability at 100 µg/mL (C6 [1]) [%]	viability at 12 µg/mL (C6 [2]) [%]	viability at 6 µg/mL (C6 [3]) [%]	IC50 (NIH3T3) [µg/mL]	viability at 200 µg/mL (C6 [4]) [%]	viability at 25 µg/mL (C6 [5]) [%]	viability at 50 µg/mL (C6 [6]) [%]	IC50 (C6 [7]) [µg/mL]	other results
250 (≈ 590 µM)	250 (≈ 590 µM)	250 (≈ 590 µM)	250 (≈ 590 µM)	250 (≈ 590 µM)	250 (≈ 590 µM)	125 (≈ 295 µM)	250 (≈ 590 µM)	250 (≈ 590 µM)	250 (≈ 590 µM)	250 (≈ 590 µM)	250 (≈ 590 µM)	Cn1nnnc1SCC(=O)N/N=c1/scc(-c2ccccc2)n1-c1ccccc1	38.8	80.7	85.2	173 (≈ 409 µM)	26.8	64.2	56.2	67.7 (≈ 160 µM)	MIC (Pseudomonas aeruginosa): 250 µg/mL (≈ 590 µM); MIC (Aspergillus ochraceus): 250 µg/mL (≈ 590 µM)
250 (≈ 534 µM)	250 (≈ 534 µM)	250 (≈ 534 µM)	250 (≈ 534 µM)	250 (≈ 534 µM)	250 (≈ 534 µM)	125 (≈ 267 µM)	500 (≈ 1070 µM)	250 (≈ 534 µM)	250 (≈ 534 µM)	250 (≈ 534 µM)	250 (≈ 534 µM)	Cn1nnnc1SCC(=O)N/N=c1/scc(-c2ccc([N+](=O)[O-])cc2)n1-c1ccccc1	64.1	76.2	80.4	167 (≈ 356 µM)	58.6	69.3	69.2	> 200	MIC (Pseudomonas aeruginosa): 250 µg/mL (≈ 534 µM); MIC (Aspergillus ochraceus): 250 µg/mL (≈ 534 µM)
250 (≈ 571 µM)	250 (≈ 571 µM)	250 (≈ 571 µM)	250 (≈ 571 µM)	125 (≈ 286 µM)	250 (≈ 571 µM)	125 (≈ 286 µM)	500 (≈ 1140 µM)	250 (≈ 571 µM)	250 (≈ 571 µM)	250 (≈ 571 µM)	250 (≈ 571 µM)	Cc1ccc(-c2cs/c(=N/NC(=O)CSc3nnnn3C)n2-c2ccccc2)cc1	39.7	68.8	88	243 (≈ 556 µM)	39.7	60.7	44.3	36.3 (≈ 83 µM)	MIC (Pseudomonas aeruginosa): 250 µg/mL (≈ 571 µM); MIC (Aspergillus ochraceus): 250 µg/mL (≈ 571 µM)
